What was measured:
VSMC-E1A = experiment: Intracellular Na+ and K+ content in VSMC-E1A; assay type: cell-based, rat; conditions: for Intracellular cations K^+i / Intracellular cations Na^+i: ouabain-treated VSMC-E1A, 1 mM, 6 hours
Method: (§1) FIG. 1. Kinetics of modulation of intracellular Na^+ (1, 2) and K^+ (3, 4) content by ouabain in VSMC-E1A (1, 3) and Jurkat cells (2, 4). Cells were preincubated for 24 hours in the presence of 10% calf serum in control medium consisting of 91 mM NaCl, 5 mM KCl, 0.9 mM NaH2PO4, 44 mM NaHCO3, 1.8 mM CaCl2, 0.8 mM MgCl2, 33 mM HEPES and 5 mM D-glucose (pH 7.4) with 2 μCi/ml of ^22Na or 0.5 μCi/ml ^86Rb, and 1 mM ouabain was added at the time interval indicated by the arrow. At specific time-points, intracellular Na^+ and K content + was measured as described in Experimental Procedures. Mean values±S.E. obtained in experiments performed in quadruplicate (VSMC-E1A) or triplicate (Jurkat cells) are given.
To estimate chromatin cleavage, cells were incubated for 1 hr in the presence of 10% calf serum (CS) in the control solution (DMEM, [Na^+]=137 mM; [K^+]=5 mM—line 1) or under equimolar substitution of NaCl by KCl ([Na^+]=14 mM; [K^+]=128 mM—line 2) with or without 1 mM ouabain and then for an additional 6 hours in the same media with or without CS. Intracellular Na^+ and K^+ content was measured as steady-state distribution of isotopes after 24 hours preincubation of cells in control Na^+-enriched solution containing 0.5 μCi/ml ^86Rb or 2 μCilml ^22Na, and additional 6 hours incubation in Na^+—(line 1) or K^+—(line 2) enriched medium, containing 10% CS and isotopes with the same specific activity with or without 1 mM ouabain. For more details see Experimental Procedures. Mean values±S.E. obtained in 3 experiments performed in triplicate (ion content) or quadruplicate (chromatin cleavage) are given. ★p<0.001 compared to ouabain-untreated cells.
(§2) Intracellular Na^+ and K^+ content. The intracellular content of exchangeable Na^+ and K^+ was measured as steady-state distribution of extra- and intracellular ^22Na and ^86Rb, as described previously in detail (22). Briefly, to establish the steady-state distribution of isotopes, VSMC growing in 12× (^22Na) or 24× (^86Rb) well plates or ˜10^6 Jurkat cells in suspension were preincubated for 24 hours in DMEM containing 10% calf serum and 0.5 μCi/ml ^86RbCl or 2 μCi/ml ^22NaCl and then treated in media with compositions shown in FIG. 1 and Tables 3 and 4 and with the same specific radioactivity. At the end of incubation, the VSMC were transferred on ice, washed 4 times with 2 ml of ice-cold medium W, containing 100 mM MgCl2 and 10 mM HEPES-tris buffer (pH 7.4), and lysed with SDS/EDTA mixture. One ml of Jurkat cell suspension was applied on a Whatman type C filter with the cells being washed with 3×5 ml aliquots of ice-cold medium W under negative pressure of 20-30 mm Hg. Radioactivity of the incubation medium and cell lysate was measured with a liquid scintillation analyzer and intracellular cation content was determined as A/am, where A was the radioactivity of the samples (cpm), a was the specific radioactivity of Na^+ and K^+(^86Rb) in the medium (cpm/nmol), and m was the protein content determined by Lowry methods.

Jurkat cells = experiment: Intracellular Na+ and K+ content in Jurkat cells; assay type: cell-based, human; conditions: for Intracellular cations K^+i / Intracellular cations Na^+i: ouabain-treated Jurkat cells, 1 mM, 6 hours
Method: as §1
To estimate chromatin cleavage, cells were incubated for 2 hours in the presence of 10% calf serum in the control solution (DMEM, [Na^+]=137 mM; [K^+]=5 mM—line 1) or under equimolar substitution of NaCl with KCl ([Na^+]=14 mM; [K^+]=128 mM—line 2) with or without 1 mM ouabain and then for an additional 7 hours at the same media with or without 100 ng/ml Fas ligand (Fas-L). Intracellular Na^+ and K^+ content was measured as steady-state distribution of isotopes after 24 hours preincubation of cells in control Na^+-enriched solution containing 0.5 μCi/ml ^86Rb or 2 μCi/ml ^22Na, and an additional 6 hours incubation in Na^+—(line 1) or K^+—(line 2) enriched medium containing 10% calf serum, isotopes with the same specific activity with or without 1 mM ouabain. For more details see Experimental Procedures. Mean values±S.E. obtained in experiments performed in triplicate are given. ★, #p<0.01 and 0.001 compared to ouabain-untreated cells.
as §2

For `C[C@@H]1O[C@@H](O[C@H]2C[C@@H](O)[C@]3(CO)[C@H]4[C@H](O)C[C@]5(C)[C@@H](C6=CC(=O)OC6)CC[C@]5(O)[C@@H]4CC[C@]3(O)C2)[C@H](O)[C@H](O)[C@H]1O` [Ouabain, 1β,3β,5,11α,14,19-hexahydroxycard 20 [22]-enolide 3-[6-deoxy-α-L-mannopyrano-sidel]], the “intracellular Na^+ content” value (VSMC-E1A; VSMC-E1A, after 2 hours of 1 mM ouabain (from 38±8)) was 283±30 nmol/mg proteins, the “K^+i content” value (VSMC-E1A; VSMC-E1A, after 2 hours of 1 mM ouabain (from 405±41)) was 131±19 nmol/mg proteins and the “Na^+i and K^+i content on prolongation of incubation” value (VSMC-E1A; VSMC-E1A, ouabain for up to 5 hours versus 2 hours) was “did not significantly modify”. For the same molecule, the “Intracellular cations K^+i” value (VSMC-E1A; medium [Na+]o=14, [K+]o=128 mM) was 293 nmol/mg prot, the “Intracellular cations Na^+i” value (VSMC-E1A; medium [Na+]o=14, [K+]o=128 mM) was 51 nmol/mg prot and the “Intracellular cations K^+i” value (VSMC-E1A; medium [Na+]o=137, [K+]o=5 mM) was 99 nmol/mg prot. For the same molecule, the “Intracellular cations Na^+i” value (VSMC-E1A; medium [Na+]o=137, [K+]o=5 mM) was 312 nmol/mg prot, the “increase of the content of intracellular Na^+” value (Jurkat cells; ouabain treated Jurkat lymphocytes, 1 mM (FIG. 1, curve 2)) was 10 fold and the “Intracellular cations K^+i” value (Jurkat cells; medium [Na+]o=14, [K+]o=128 mM) was 498 nmol/mg protein. The “Intracellular cations Na^+i” value (Jurkat cells; medium [Na+]o=14, [K+]o=128 mM) was 204 nmol/mg protein, the “Intracellular cations K^+i” value (Jurkat cells; medium [Na+]o=137, [K+]o=5 mM) was 107 nmol/mg protein and the “Intracellular cations Na^+i” value (Jurkat cells; medium [Na+]o=137, [K+]o=5 mM) was 1137 nmol/mg protein.

Reference: patent US6699676B1, “Uses of ouabain and ouabain-like molecules in apoptosis related pathologies” (Corporation du Centre de Recherche du Centre, Hospitalier …, priority 1999, dated 2004)
